Earlier results on 7 compounds are cited in patent publication US20230405112A1, “PHARMACEUTICAL COMPOSITION, PHARMACEUTICAL COMBINED FORMULATION, AND COMBINED FORMULATION KIT FOR PREVENTION OR TREATMENT OF CHRONIC HEPATITIS B, EACH COMPRISING, AS ACTIVE INGREDIENT, ORAL ANTIVIRAL AGENT AND THERAPEUTIC VACCINE INCLUDING LIPOPEPTIDE AND POLY(I:C) ADJUVANT” (CHA VACCINE RESEARCH INSTITUTE CO., LTD, priority 2020, published 2023).

“And” between values parts separate entries of the source, which are not always exact repeats. Equal values may be shown once. Where a name gives a salt, the structure may show the parent alone. Read-outs that look alike come from different tables or passages of the source.

The test system of series [1] is hepatitis B virus. The following applies: after 1 year of treatment.
For series [2], the system named is hepatitis B virus.
Series [3] deals with hepatitis B virus. The following applies: Chinese patients; 7 years.
For series [4], the system named is hepatitis B virus. The source holds these as a separate data set.
Series [5] concerns hepatitis B virus. This is another data set of the same source.
Series [6] has as its system virus-specific cytotoxic T lymphocytes (CTLs). Particulars: combined with an influenza virus T cell epitope; administered to mice.
Where [7] appears, read: HBeAg(+), phase 3, 2 year results.
Setting [8] is: baseline HBeAg(+), 1 year (week 48).
Setting [9] is: baseline HBeAg(+), 2 years (week 96).
Where [10] appears, read: baseline HBeAg(−), 1 year (week 48).
[11] abbreviates: baseline HBeAg(−), 2 years (week 96).
The mark [12] stands for this setting: HBeAg(+), 3-year follow-up, (non-Asian).
[13] abbreviates: HBeAg(+), phase 3, 1 year, (non-Asian).
Setting [14] is: all patients, 10-year follow-up.

For the compound `CC(C)(C)C(=O)OCOP(=O)(COCCn1cnc2c(N)ncnc21)OCOC(=O)C(C)(C)C` [ADV, Adefovirdipivoxil], in the series on hepatitis B virus [1] (HBeAg(+) patients), the ALT nomalisatioin is 48~54%, the Anti-Hbe-seroconversion was 12~18%, the “HBV DNA <60~80 IU/ml” value is reported as 13~21% and the “HBs Ag loss” value was 0%. Besides, in the series on hepatitis B virus [1] (HBeAg(−) patients), the ALT nomalisatioin was 72~77%, the “HBV DNA <60~80 IU/ml” value was 51~63% and the “HBs Ag loss” value is recorded as 0%.
`C=C1[C@H](CO)[C@@H](O)C[C@@H]1n1cnc2c(=O)[nH]c(N)nc21` [Entecavir]: in the series with hepatitis B virus [1] (HBeAg(+) patients), the ALT nomalisatioin is 68%, the Anti-Hbe-seroconversion is listed as 21%, the “HBV DNA <60~80 IU/ml” value is recorded as 67% and the “HBs Ag loss” value is 2%. In the series on hepatitis B virus [1] (HBeAg(−) patients), the ALT nomalisatioin was 78%, the “HBV DNA <60~80 IU/ml” value was 90% and the “HBs Ag loss” value is given as 0%. In addition, in the series with hepatitis B virus [2] (5 year results), the “HBeAg seroconversion (%)” value is given as 23% and the “HBeAg seroconversion n/N” value is given as 33/141. For the same compound, in the series with hepatitis B virus [2] (HBeAg(+), 5 year results), the “HBsAg loss (%)” value is given as 1.4% and the “HBsAg loss n/N” value is recorded as 2/145. Also, in the series with hepatitis B virus [2] (setting [7]), the “HBsAg loss (%)” value was 5%, the “HBsAg loss n/N” value was 18/354, the “HBsAg seroconversion (%)” value was 2% and the “HBsAg seroconversion n/N” value is reported as 6/354. For the same compound, in the series with hepatitis B virus [2] (phase 3, 2 year results), the “HBeAg seroconversion (%)” value was 31% and the “HBeAg seroconversion n/N” value is on record as 110/354. Moreover, in the series with hepatitis B virus [3], the “HBeAg seroconversion rate (Kaplan-meier analysis)” value is on record as 82.1%; the “HBsAg loss (%)” value is reported as 2.5%; the “HBsAg loss, patients” value is reported as 4 of 160.
Consider `Nc1ccn([C@@H]2CS[C@H](CO)O2)c(=O)n1` [LAM, Lamivudine], for which, in the series on hepatitis B virus [1] (HBeAg(+) patients), the ALT nomalisatioin is on record as 41~72%, the Anti-Hbe-seroconversion is listed as 16~18%, the “HBV DNA <60~80 IU/ml” value is recorded as 36~44% and the “HBs Ag loss” value is reported as 0~1%. Besides, in the series with hepatitis B virus [1] (HBeAg(−) patients), the ALT nomalisatioin is 71~79%, the “HBV DNA <60~80 IU/ml” value was 72~73% and the “HBs Ag loss” value is listed as 0%.
Take `CC(C)OC(=O)[C@H](C)N[P@](=O)(CO[C@H](C)Cn1cnc2c(N)ncnc21)Oc1ccccc1` [TAF, Tenofoviralafenamide fumarate]: in the series on hepatitis B virus [1] (HBeAg(+) patients), the ALT nomalisatioin is recorded as 72%, the Anti-Hbe-seroconversion was 10%, the “HBV DNA <60~80 IU/ml” value was 64% and the “HBs Ag loss” value is listed as 1%. Moreover, in the series on hepatitis B virus [1] (HBeAg(−) patients), the ALT nomalisatioin is recorded as 83%, the “HBV DNA <60~80 IU/ml” value is 94% and the “HBs Ag loss” value was 0%. For the same compound, in the series with hepatitis B virus [4] (Total, 1 year (week 48)), the “HBeAg loss (%)” value was “(14%)”, the “HBeAg loss n/N” value was 78/565 and the “HBsAg loss n/N” value is listed as 4/861. Besides, in the series on hepatitis B virus [4] (Total, 2 years (week 96)), the “HBeAg loss (%)” value was “(22%)”, the “HBeAg loss n/N” value is 123/565, the “HBsAg loss (%)” value was “(<1%)” and the “HBsAg loss n/N” value is given as 8/861. Moreover, in the series on hepatitis B virus [4] (baseline HBeAg(+), 1 year), the “HBeAg seroconversion (%)” value is recorded as “(10%)”, the “HBeAg seroconversion n/N” value is listed as 58/565, the “HBsAg seroconversion (%)” value is reported as “(1%)” and the “HBsAg seroconversion n/N” value is recorded as 3/576. For the same compound, in the series with hepatitis B virus [4] (setting [8]), the “HBeAg loss n/N” value was 78/565 and the “HBsAg loss n/N” value was 4/576. Also, in the series on hepatitis B virus [4] (baseline HBeAg(+), 2 years), the “HBeAg seroconversion (%)” value is recorded as “(18%)”, the “HBeAg seroconversion n/N” value is 99/565, the “HBsAg seroconversion (%)” value is listed as “(1%)” and the “HBsAg seroconversion n/N” value is 6/576. In addition, in the series on hepatitis B virus [4] (setting [9]), the “Average reduction of HBsAg” value was −0.51 log10IU/ml, the “HBeAg loss n/N” value was 123/565 and the “HBsAg loss n/N” value was 7/576. In addition, the “HBsAg seroconversion n/N” value in the series on hepatitis B virus [4] (baseline HBeAg(−), 1 year) is 0. The “HBsAg loss n/N” value in the series with hepatitis B virus [4] (setting [10]) is given as 0. Besides, in the series with hepatitis B virus [4] (baseline HBeAg(−), 2 years), the “HBsAg seroconversion (%)” value was “(<1%)” and the “HBsAg seroconversion n/N” value is 1/281. For the same compound, in the series with hepatitis B virus [4] (setting [11]), the “Average reduction of HBsAg” value is on record as −0.14 log10IU/ml, the “HBsAg loss (%)” value is on record as “(<1%)” and the “HBsAg loss n/N” value is listed as 1/281.
`Cc1cn([C@@H]2C[C@@H](O)[C@H](CO)O2)c(=O)[nH]c1=O` [TBV, Telbivudine]: in the series on hepatitis B virus [1] (HBeAg(+) patients), the ALT nomalisatioin is recorded as 77%, the Anti-Hbe-seroconversion was 22%, the “HBV DNA <60~80 IU/ml” value is reported as 60% and the “HBs Ag loss” value was 0.5%. Moreover, in the series on hepatitis B virus [1] (HBeAg(−) patients), the ALT nomalisatioin was 74%, the “HBV DNA <60~80 IU/ml” value was 88% and the “HBs Ag loss” value was 0%.
`CC(C)OC(=O)OCOP(=O)(CO[C@H](C)Cn1cnc2c(N)ncnc21)OCOC(=O)OC(C)C` [TDF, Tenofovirdisoproxil fumarate]: the figures for the ALT nomalisatioin with hepatitis B virus [1] (HBeAg(+) patients) and in the series with hepatitis B virus [1] (HBeAg(−) patients) were 68% and 76%, respectively. Moreover, in the series with hepatitis B virus [1] (HBeAg(+) patients), the Anti-Hbe-seroconversion is reported as 21%. The entries for the “HBV DNA <60~80 IU/ml” value in the series with hepatitis B virus [1] (HBeAg(+) patients) and in the series with hepatitis B virus [1] (HBeAg(−) patients) were 76% and 93%, respectively. Moreover, the “HBs Ag loss” value in the series with hepatitis B virus [1] (HBeAg(+) patients) is reported as 3%; in the series with hepatitis B virus [1] (HBeAg(−) patients), 0%. Moreover, the “HBeAg loss (%)” value is “(12%)” with hepatitis B virus [4] (Total, 1 year (week 48)); “(18%)” in the series with hepatitis B virus [4] (Total, 2 years (week 96)); 34% in the series on hepatitis B virus [5] (HBeAg(+), 3-year follow-up). The “HBeAg loss n/N” value is 34/285 with hepatitis B virus [4] (Total, 1 year (week 48)); 51/285 in the series with hepatitis B virus [4] (Total, 2 years (week 96)); 34/285 in the series on hepatitis B virus [4] (setting [8]); 51/285 in the series with hepatitis B virus [4] (setting [9]); 84/154 in the series on hepatitis B virus [5] (HBeAg(+), 7-year follow-up); 12/23 with hepatitis B virus [5] (HBeAg(+), 10-year follow-up). Further, the “HBsAg loss (%)” value was “(<1%)” with hepatitis B virus [4] (Total, 1 year (week 48)); “(<1%)” with hepatitis B virus [4] (Total, 2 years (week 96)); 4.0% with hepatitis B virus [5] (setting [14]). Moreover, the “HBsAg loss n/N” value in the series on hepatitis B virus [4] (Total, 1 year (week 48)) is 1 out of 428 and 1/428; with hepatitis B virus [4] (Total, 2 years (week 96)), 4/428; in the series on hepatitis B virus [4] (setting [8]), 1/288; in the series on hepatitis B virus [4] (setting [9]), 4/288; in the series with hepatitis B virus [4] (setting [10]), 0; in the series on hepatitis B virus [4] (setting [11]), 0. Besides, the “HBsAg loss n/N” value is 4/81 in the series on hepatitis B virus [5] (HBeAg(+), 10-year follow-up, (non-Asian)); 5/158 in the series on hepatitis B virus [5] (setting [13]); 0 with hepatitis B virus [5] (HBeAg(−), 3-year follow-up); 4/117 in the series on hepatitis B virus [5] (HBeAg(−), 10-year follow-up, (non-Asian)); 0 in the series with hepatitis B virus [5] (HBeAg(−), phase 3, 1 year); 8/198 in the series on hepatitis B virus [5] (setting [14]). Also, the “HBeAg seroconversion (%)” value with hepatitis B virus [4] (baseline HBeAg(+), 1 year) is recorded as “(8%)”; with hepatitis B virus [4] (baseline HBeAg(+), 2 years), “(12%)”; in the series on hepatitis B virus [5] (HBeAg(+), 3-year follow-up), 26%. In addition, the “HBeAg seroconversion n/N” value in the series with hepatitis B virus [4] (baseline HBeAg(+), 1 year) is 23/285; in the series with hepatitis B virus [4] (baseline HBeAg(+), 2 years) it was 35/285; with hepatitis B virus [5] (HBeAg(+), 7-year follow-up), 61/154; in the series with hepatitis B virus [5] (HBeAg(+), 10-year follow-up), 6/22; in the series on hepatitis B virus [5] (HBeAg(+), phase 3, 1 year) it was 32/153. Besides, the “HBsAg seroconversion n/N” value with hepatitis B virus [4] (baseline HBeAg(+), 1 year) is reported as 0; with hepatitis B virus [4] (baseline HBeAg(+), 2 years), 0; in the series on hepatitis B virus [4] (baseline HBeAg(−), 1 year), 0; with hepatitis B virus [4] (baseline HBeAg(−), 2 years), 0; in the series with hepatitis B virus [5] (setting [13]), 2/158; with hepatitis B virus [5] (HBeAg(−), 3-year follow-up), 0. In addition, the “HBsAg seroconversion n/N” value in the series with hepatitis B virus [5] (HBeAg(−), 7-year follow-up) is reported as 0; with hepatitis B virus [5] (HBeAg(−), phase 3, 1 year) it was 0. Further, the “Average reduction of HBsAg” value is on record as −0.64 log10IU/ml with hepatitis B virus [4] (setting [9]) and −0.10 log10IU/ml with hepatitis B virus [4] (setting [11]). Further, the “HBsAg loss (%) [kaplan-meier]” value with hepatitis B virus [5] (setting [12]) is on record as 8%; in the series on hepatitis B virus [5] (HBeAg(+), 7-year follow-up), 11.8%. Also, the “HBsAg seroconversion (%) [kaplan-meier]” value in the series with hepatitis B virus [5] (setting [12]) is on record as 6%; with hepatitis B virus [5] (HBeAg(+), 7-year follow-up), 9.7%. The “HBsAg seroconversion, n patients” value in the series on hepatitis B virus [5] (setting [12]) was “(n = 15)”; in the series on hepatitis B virus [5] (HBeAg(+), 7-year follow-up), “(n = 21)”. For the same compound, in the series with hepatitis B virus [5] (HBeAg(+), 7-year follow-up), the “HBsAg loss, n patients” value is recorded as “(n = 27)”. Besides, in the series on hepatitis B virus [5] (all patients, over 7 years), the “HBsAg loss, number of patients” value is on record as 28. Besides, the “change of HBsAg levels” value with hepatitis B virus [5] (patients first receiving oral antiviral agent, after 2 years (96 weeks), FIG. 1) is recorded as “no significant change”.
As for Pam3Cys-Ser-Ser, in series [6], the “virus-specific cytotoxic T lymphocytes (CTLs)” value is reported as “induced”.
